The results in this text go back to patent US7238689B2, “Isoxazoline derivative and herbicide comprising the same as active ingredient” (Ihara Chemical Industry Co., Ltd., priority 2001, dated 2007).

Data set [1] concerns Setaria viridis (L.) Beauv. In words: Herbicidal effect by upland field soil treatment. Format: in vivo. On the set-up: scale not given here. Conditions: active ingredient 1000 g/ha, examined at 21st day from treatment. An excerpt:
(§1) An upland field soil was filled in a plastic pot of 80 cm^2. Seeds of Echinochloa crus-galli (L.) Beauv. var. crusgalli and Setaria viridis (L.) Beauv. were sowed, followed by covering with the same soil. […] Then, breeding was made in a greenhouse, and the herbicidal effect of each wettable powder was examined at the 21st day from the treatment in accordance with the standard shown in Table 21.

Data set [2] has as its system Echinochloa crus-galli (L.) Beauv. var. crusgalli. In words: Herbicidal effect by upland field soil treatment. The format is in vivo. More on the design: scale not given here. The settings on record: active ingredient 1000 g/ha, examined at 21st day from treatment.
From the text: as §1

In data set [3] the test system is Echinochloa oryzicola Vasing. Kind of data set: Herbicidal effect by paddy field soil treatment. Format: in vivo. On the set-up: scale not given here. The settings on record: wettable powder, active ingredient 1000 g/ha, examined at the 21st day from the treatment. The method, boiled down: (§2)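 Seeds sown in puddled paddy soil under 3 cm of water; the next day wettable powders diluted in water were dropped onto the water surface at 1,000 g active ingredient/ha. Plants grown in a greenhouse, with herbicidal effect scored on day 21 against a rating standard.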

The test system of data set [4] is Monochoria vaginalis (Murm. f.) Presl var. plantaginea (Roxb.) Solms-Laub. In words: Herbicidal effect by paddy field soil treatment. Conditions: wettable powder, active ingredient 1000 g/ha, examined at the 21st day from the treatment. The format is in vivo. More on the design: scale not given here. The gist of the method: as §2
In data set [5] the test system is Setaria viridis (L.) Beauv. In words: Herbicidal effect by upland foliage treatment. More on the design: scale not given here. The settings on record: active ingredient 1000 g/ha, examined at 14th day from treatment. Format: in vivo. The gist of the method:
(§3)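 Two-week-old greenhouse plants in sand were sprayed over the whole foliage with water-diluted wettable powder at 1,000 liters per hectare, giving 1,000 g active ingredient per hectare. Herbicidal effect scored on a rating standard at day 14 after treatment.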

The subject of data set [6] is Echinochloa crus-galli (L.) Beauv. var. crus-galli. In words: Herbicidal effect by upland foliage treatment. The format is in vivo. More on the design: scale not given here. The settings on record: active ingredient 1000 g/ha, examined at 14th day from treatment. The gist of the method:
as §3

In general, melting point refers to the temperature of the solid-liquid transition. The molecule `CON=C(C)c1c(C)sc(C)c1CS(=O)(=O)C1=NOC(C)(C)C1` [2-0001, 5,5-dimethyl-3-[2,5-dimethyl-4-(1-methoxyiminoethyl)-thiophen-3-ylmethylsulfonyl]-2-isoxazoline] returned a melting point of 95 to 96 °C. Further, the “herbicidal effect (index per standard of Table 21), Setaria viridis (L.) Beauv.” value in data set [1] came out at 5. For the same molecule, in data set [2], the “herbicidal effect (index per standard of Table 21), Echinochloa curs-galli (L.) Beauv. Var. crus-galli” value is listed as 5. Moreover, the “Herbicidal effect index, Echinochloa oryzicola Vasing” value in data set [3] was found to be 5. In addition, in data set [4], the “Herbicidal effect index, Monochoria vaginalis (Burm. F.) Presl var. plantaginea (Roxb.) Solms-Laub.” value (“Herbicidal effect index … (Roxb.) Solms-Laub.” below) is recorded as 5. For the same molecule, the “herbicidal effect (index per standard of Table 21), Setaria viridis (L.) Beauv.” value in data set [5] stood at 4. Also, the “herbicidal effect (index per standard of Table 21), Echinochloa curs-galli (L.) Beauv. Var. crus-galli” value in data set [6] is 5.

In turn, `CC1(C)CC(SCc2c(C(F)(F)F)nn(C(F)F)c2Cl)=NO1` [3-0008, 3-(5-chloro-1-difluoromethyl-3-trifluoromethyl-1H-pyrazol-4-ylmethylthio)-5,5-dimethyl-2-isoxazoline] yielded a melting point of 41 to 42 °C. Also, in data set [1], the “herbicidal effect (index per standard of Table 21), Setaria viridis (L.) Beauv.” value was 5. For the same molecule, the “herbicidal effect (index per standard of Table 21), Echinochloa curs-galli (L.) Beauv. Var. crus-galli” value in data set [2] stood at 5. Also, the “herbicidal effect (index per standard of Table 21), Setaria viridis (L.) Beauv.” value in data set [5] is listed as 4. Further, in data set [6], the “herbicidal effect (index per standard of Table 21), Echinochloa curs-galli (L.) Beauv. Var. crus-galli” value is 4.

Consider `COc1c(CS(=O)(=O)C2=NOC(C)(C)C2)c(C(F)(F)F)nn1C` [3-0013, 5,5-dimethyl-3-(5-methoxy-1-methyl-3-trifluoromethyl-1H-pyrazol-4-ylmethylsulfonyl)-2-isoxazoline], for which the melting point lay within 113 to 114 °C. Further, in data set [1], the “herbicidal effect (index per standard of Table 21), Setaria viridis (L.) Beauv.” value is 5. Also, the “herbicidal effect (index per standard of Table 21), Echinochloa curs-galli (L.) Beauv. Var. crus-galli” value in data set [2] is 5. Besides, in data set [3], the “Herbicidal effect index, Echinochloa oryzicola Vasing” value was determined as 5. Also, the “Herbicidal effect index … (Roxb.) Solms-Laub.” value in data set [4] is listed as 5. Besides, the “herbicidal effect (index per standard of Table 21), Setaria viridis (L.) Beauv.” value in data set [5] is reported as 5. Besides, in data set [6], the “herbicidal effect (index per standard of Table 21), Echinochloa curs-galli (L.) Beauv. Var. crus-galli” value is recorded as 5.

`Cn1nc(C(F)(F)F)c(CS(=O)(=O)C2=NOC(C)(C)C2)c1OC1CCCC1` [3-0015, 3-(5-cyclopentyloxy-1-methyl-3-trifluoromethyl-1H-pyrazol-4-ylmethylsulfonyl)-5,5-dimethyl-2-isoxazoline] gave a melting point of 113 to 114 °C. Moreover, in data set [1], the “herbicidal effect (index per standard of Table 21), Setaria viridis (L.) Beauv.” value amounted to 5. In data set [2], the “herbicidal effect (index per standard of Table 21), Echinochloa curs-galli (L.) Beauv. Var. crus-galli” value is 5. Moreover, the “Herbicidal effect index, Echinochloa oryzicola Vasing” value in data set [3] worked out at 5. The “Herbicidal effect index … (Roxb.) Solms-Laub.” value in data set [4] was determined as 5. The “herbicidal effect (index per standard of Table 21), Setaria viridis (L.) Beauv.” value in data set [5] came out at 4. For the same molecule, in data set [6], the “herbicidal effect (index per standard of Table 21), Echinochloa curs-galli (L.) Beauv. Var. crus-galli” value turned out to be 5.
